In patent US8816085B2 (Takeda GmbH, priority 2009, dated 2014):

target: T1, PDE5A1 (human PDE5 from platelets) (Homo sapiens, UniProt O76074); experiment: Inhibition of type 5 phosphodiesterase (PDE5) activity, modified SPA test; type: biochemical; settings: PDE5-containing human platelet lysate, 0.5 μM cGMP, value classes, read-out: PDE5A1 inhibitory values [measured as −logIC50 (mol/l)] (converted)
T1 construct: from tissue; host or cells: platelets from fresh blood of human donors (10,000 g supernatant of sonified platelets)
Procedure: Method for Measuring Inhibition of the Type 5 Phosphodiesterase (PDE5) Activity:
As a source for human PDE5, platelets are used. For that purpose, 150 ml fresh blood from human donors anticoagulated with citrate [final concentration 0.3% (w/v)] is centrifuged at 200 g for 10 min to obtain the so-called platelet-rich-plasma (PRP) as a supernatant. 1/10 volume of ACD solution (85 mM Na3-citrate, 111 mM D-glucose, 71 mM citric acid, pH 4.4) is added to 9/10 volume of PRP. After centrifugation (1,400 g, 10 min) the cell pellet is resuspended in 3 ml homogenization buffer (NaCl 140 mM, KCl 3.8 mM, EGTA (ethylene glycol tetraacetic acid) 1 mM, MgCl2 1 mM, Tris-HCl 20 mM, beta-mercaptoethanol 1 mM, pH 8.2) plus protease-inhibitor mix giving rise to the final concentrations of 0.5 mM Pefablock (Roche), 10 μM Leupeptin, 5 μM Trypsininhibitor, 2 mM Benzamidin and 10 μM Pepstatin A. The suspension is sonified and thereafter centrifuged for 15 min at 10,000 g. The resulting supernatant (platelet lysate) is used for enzymatic testings.
PDE5A1 activity is inhibited by the compounds of the present subject matter in a modified SPA (scintillation proximity assay) test, supplied by Amersham Biosciences (see procedural instructions “phosphodiesterase [3H]cAMP SPA enzyme assay, code TRKQ 7090”), carried out in 96-well microtitre plates (MTP's). The test volume is 100 μl and contains 20 mM Tris buffer (pH 7.4), 0.1 mg of BSA (bovine serum albumin)/ml, 5 mM Mg^2+, 1 μM motapizone, 10 nM PDE2 inhibitor 2-(3,4-dimethoxybenzyl)-7-[(1R,2R)-2-hydroxy-1-(2-phenylethyl)propyl]-5-methylimidazo[5,1-t][1,2,4]triazin-4(3H)-one, 0.5 μM cGMP (cyclic guanosine monophosphate) (including about 50,000 cpm of [3H]cGMP as a tracer), 1 μl of the respective compound dilution in dimethylsulfoxide (DMSO) and sufficient PDE5-containing platelet lysat (10,000×g supernatant, see above) to ensure that 10-20 wt % of the cGMP is converted under the said experimental conditions. […] After a preincubation of 5 min at 37° C., the reaction is started by adding the substrate (cGMP) and the assay is incubated for a further 15 min; after that, it is stopped by adding SPA beads (50 μl). In accordance with the manufacturer's instructions, the SPA beads had previously been resuspended in water, but are then diluted 1:3 (v/v) in water; the diluted solution also contains 3 mM 8-methoxymethyl-3-isobutyl-1-methylxanthine (IBMX) to ensure a complete PDE activity stop. After the beads have been sedimented (>30 min), the MTP's are analyzed in commercially available luminescence detection devices. The corresponding IC50 values of the compounds for the inhibition of PDE activity are determined from the concentration-effect curves by means of non-linear regression.

Row | Compound | IC50
1 | CC(=O)N1CCC(NC(=O)c2c(C)[nH]c3c(-c4cc(C)ccc4OCC4CC4)ccnc23)CC1 [Example E52, N-(1-Acetylpiperidin-4-yl)-7-[2-(cyclopropylmethoxy)-5-methylphenyl]-2-methyl-1H-pyrrolo[3,2-b]pyridine-3-carboxamide] | 1 to 10 nM
2 | COc1ccc(OCC2CC2)c(-c2ccnc3c(C(=O)N[C@H]4CC[C@H](NC(=O)CO)CC4)c(C)[nH]c23)c1 [Example F28, 7-[2-(Cyclopropylmethoxy)-5-methoxyphenyl]-N-{trans-4-[(hydroxyacetyl)amino]cyclohexyl}-2-methyl-1H-pyrrolo[3,2-b]pyridine-3-carboxamide] | < 1 nM
3 | COc1ccc(-c2ccnc3c(C(=O)N[C@H]4CC[C@@H](NC(=O)[C@H](C)O)CC4)c(C)[nH]c23)c(OCC2CC2)c1 [Example F25, 7-[2-(Cyclopropylmethoxy)-4-methoxyphenyl]-N-(cis-4-{[(2S)-2-hydroxypropanoyl]amino}cyclohexyl)-2-methyl-1H-pyrrolo[3,2-b]pyridine-3-carboxamide] | < 1 nM
4 | CCC(=O)N[C@H]1CC[C@@H](NC(=O)c2c(C)[nH]c3c(-c4cc(OC)ccc4OCC4CC4)ccnc23)CC1 [Example E47, 7-[2-(Cyclopropylmethoxy)-5-methoxyphenyl]-2-methyl-N-[cis-4-(propanoylamino)cyclohexyl]-1H-pyrrolo[3,2-b]pyridine-3-carboxamide] | 1 to 10 nM
5 | Cc1[nH]c2c(-c3ccc(F)cc3OCC3CC3)ccnc2c1C(=O)N[C@H]1CC[C@H](NC(=O)[C@H](C)O)CC1 [Example F09, 7-[2-(Cyclopropylmethoxy)-4-fluorophenyl]-N-(trans-4-{[(2S)-2-hydroxypropanoyl]amino}cyclohexyl)-2-methyl-1H-pyrrolo[3,2-b]pyridine-3-carboxamide] | < 1 nM
6 | CCC(=O)N[C@H]1CC[C@H](NC(=O)c2c(C)[nH]c3c(-c4cc(C)ccc4OCC4CC4)ccnc23)CC1 [Example E56, 7-[2-(Cyclopropylmethoxy)-5-methylphenyl]-2-methyl-N-[trans-4-(propanoylamino)cyclohexyl]-1H-pyrrolo[3,2-b]pyridine-3-carboxamide] | 1 to 10 nM
7 | CCC(=O)N[C@H]1CC[C@@H](NC(=O)c2c(C)[nH]c3c(-c4cc(OC)c(F)cc4OCC4CC4)ccnc23)CC1 [Example E68, 7-[2-(Cyclopropylmethoxy)-4-fluoro-5-methoxyphenyl]-2-methyl-N-[cis-4-(propanoylamino)cyclohexyl]-1H-pyrrolo[3,2-b]pyridine-3-carboxamide] | < 1 nM
8 | COCC(=O)N1CC[C@@H](NC(=O)c2c(C)[nH]c3c(-c4cc(F)ccc4OCC4CC4)ccnc23)[C@H](O)C1 (relative stereo) [Example E30, 7-[2-(Cyclopropylmethoxy)-5-fluorophenyl]-N-[(3R*,4R*)-3-hydroxy-1-(methoxyacetyl)piperidin-4-yl]-2-methyl-1H-pyrrolo[3,2-b]pyridine-3-carboxamide] | 1 to 10 nM
9 | CC(=O)N1CCC(NC(=O)c2c(C)[nH]c3c(-c4ccc(F)cc4OCC4CC4)ccnc23)CC1 [Example E10, N-(1-Acetylpiperidin-4-yl)-7-[2-(cyclopropylmethoxy)-4-fluorophenyl]-2-methyl-1H-pyrrolo[3,2-b]pyridine-3-carboxamide] | < 1 nM
10 | COCC(=O)N[C@H]1CC[C@@H](NC(=O)c2c(C)[nH]c3c(-c4cc(OC)c(F)cc4OCC4CC4)ccnc23)CC1 [Example E69, 7-[2-(Cyclopropylmethoxy)-4-fluoro-5-methoxyphenyl]-N-{cis-4-[(methoxyacetyl)amino]cyclohexyl}-2-methyl-1H-pyrrolo[3,2-b]pyridine-3-carboxamide] | < 1 nM
11 | Cc1ccc(OCC2CC2)c(-c2ccnc3c(C(=O)N[C@H]4CC[C@@H](NC(=O)[C@H](C)O)CC4)c(C)[nH]c23)c1 [Example F39, 7-[2-(Cyclopropylmethoxy)-5-methylphenyl]-N-(cis-4-{[(2S)-2-hydroxypropanoyl]amino}cyclohexyl)-2-methyl-1H-pyrrolo[3,2-b]pyridine-3-carboxamide] | 1 to 10 nM
12 | CCC(=O)N[C@H]1CC[C@@H](NC(=O)c2c(C)[nH]c3c(-c4ccc(OC)cc4OCC4CC4)ccnc23)CC1 [Example E38, 7-[2-(Cyclopropylmethoxy)-4-methoxyphenyl]-2-methyl-N-[cis-4-(propanoylamino)cyclohexyl]-1H-pyrrolo[3,2-b]pyridine-3-carboxamide] | < 1 nM
13 | COc1cc(-c2ccnc3c(C(=O)N[C@@H]4CN(C(=O)CO)C[C@H]4O)c(C)[nH]c23)c(OCC2CC2)cc1F (relative stereo) [Example F46, 7-[2-(Cyclopropylmethoxy)-4-fluoro-5-methoxyphenyl]-N-[(3R*,4R*)-4-hydroxy-1-(hydroxyacetyl)pyrrolidin-3-yl]-2-methyl-1H-pyrrolo[3,2-b]pyridine-3-carboxamide] | < 1 nM
14 | COCC(=O)N[C@H]1CC[C@@H](NC(=O)c2c(C)[nH]c3c(-c4cc(F)ccc4OCC4CC4)ccnc23)CC1 [Example E27, 7-[2-(Cyclopropylmethoxy)-5-fluorophenyl]-N-{cis-4-[(methoxyacetyl)amino]cyclohexyl}-2-methyl-1H-pyrrolo[3,2-b]pyridine-3-carboxamide] | 1 to 10 nM
15 | COc1ccc(OCC2CC2)c(-c2ccnc3c(C(=O)N[C@H]4CC[C@@H](NC(C)=O)CC4)c(C)[nH]c23)c1 [Example E46, N-[cis-4-(Acetylamino)cyclohexyl]-7-[2-(cyclopropylmethoxy)-5-methoxyphenyl]-2-methyl-1H-pyrrolo[3,2-b]pyridine-3-carboxamide] | < 1 nM
16 | COCC(=O)N1CCC(NC(=O)c2c(C)[nH]c3c(-c4cc(F)c(OC)cc4OCC4CC4)ccnc23)CC1 [Example E78, 7-[2-(Cyclopropylmethoxy)-5-fluoro-4-methoxyphenyl]-N-[1-(methoxyacetyl)piperidin-4-yl]-2-methyl-1H-pyrrolo[3,2-b]pyridine-3-carboxamide] | < 1 nM
17 | COc1cc(-c2ccnc3c(C(=O)N[C@@H]4CN(C(C)=O)C[C@H]4O)c(C)[nH]c23)c(OCC2CC2)cc1F (relative stereo) [Example E70, N-[(3R*,4R*)-1-Acetyl-4-hydroxypyrrolidin-3-yl]-7-[2-(cyclopropylmethoxy)-4-fluoro-5-methoxyphenyl]-2-methyl-1H-pyrrolo[3,2-b]pyridine-3-carboxamide] | < 1 nM
18 | Cc1[nH]c2c(-c3cc(F)ccc3OCC3CC3)ccnc2c1C(=O)N[C@H]1CC[C@H](NC(=O)CO)CC1 [Example F14, 7-[2-(Cyclopropylmethoxy)-5-fluorophenyl]-N-{trans-4-[(hydroxyacetyl)amino]cyclohexyl}-2-methyl-1H-pyrrolo[3,2-b]pyridine-3-carboxamide] | < 1 nM
19 | COc1cc(-c2ccnc3c(C(=O)NC4CCN(C(=O)[C@H](C)O)CC4)c(C)[nH]c23)c(OCC2CC2)cc1F [Example F41, 7-[2-(Cyclopropylmethoxy)-4-fluoro-5-methoxyphenyl]-N-{1-[(2S)-2-hydroxypropanoyl]piperidin-4-yl}-2-methyl-1H-pyrrolo[3,2-b]pyridine-3-carboxamide] | < 1 nM
20 | COCC(=O)N[C@H]1CC[C@@H](NC(=O)c2c(C)[nH]c3c(-c4ccc(OC)cc4OCC4CC4)ccnc23)CC1 [Example E39, 7-[2-(Cyclopropylmethoxy)-4-methoxyphenyl]-N-{cis-4-[(methoxyacetyl)amino]cyclohexyl}-2-methyl-1H-pyrrolo[3,2-b]pyridine-3-carboxamide] | 1 to 10 nM
21 | CCOC(=O)N[C@H]1CC[C@@H](NC(=O)c2c(C)[nH]c3c(-c4c(OCC5CC5)ccc5c4OCO5)ccnc23)CC1 [Example E09, Ethyl {cis-4-[({7-[5-(cyclopropylmethoxy)-1,3-benzodioxol-4-yl]-2-methyl-1H-pyrrolo[3,2-b]pyridin-3-yl}carbonyl)amino]cyclohexyl}carbamate] | < 1 nM
22 | Cc1[nH]c2c(-c3ccc(F)cc3OCC3CC3)ccnc2c1C(=O)NC1CCN(C(=O)[C@H](C)O)CC1 [Example F07, 7-[2-(Cyclopropylmethoxy)-4-fluorophenyl]-N-{1-[(2S)-2-hydroxypropanoyl]piperidin-4-yl}-2-methyl-1H-pyrrolo[3,2-b]pyridine-3-carboxamide] | 1 to 10 nM
